Measured values as given in patent US7122573B2, “Analogs of green tea polyphenols as chemotherapeutic and chemopreventive agents” (SRI International, priority 2002, dated 2006).

Key:
Type in all cases: cell-based
MCF-7 (ER+) = test: Growth inhibition assay (MTT, 8 days) in MCF-7 breast cancer cells
Procedure: (§1) Compounds of the invention were tested for their ability to inhibit growth in two breast cancer cell lines, MCF-7 (ER+) and MDA-MB-231 (ER−).
(§2) The growth inhibition assays were conducted using routine methods. Briefly, the cells were seeded in 24-well plates at a density of 2000 cells per well in 200 μL of […] growth medium. To each well was added 10 μL of DMSO containing the dissolved test compound; final DMSO concentration in each well was not more than 0.5%. Each test compound was assayed at concentrations of 0.4, 2, 10, and 50 μM. The plates were incubated for eight days, with the media and test solutions replaced every third day. On Day 8, the viable cells were measured by the MTT assay, as described in Mosmann et al. (1983), “Rapid Colorimetric Assay for Cellular Growth and Survival: Application to Proliferation and Cytotoxicity,” J. Immunol. Method. 65:55–63. The optical density at 575 nm of each test well was measured and compared to that for control wells, and the data used to calculate the percentage of growth inhibition at different concentrations. The IC50 value (the concentration of growth inhibitor that results in 50% growth inhibition of the cells in culture relative to control cells not exposed to any growth inhibitor) was determined by plotting dose-response curves.
(§3) The calculated IC50 values are set forth in Table 1, with the results representing the average of at least two experiments conducted for each compound at each of the four concentrations.

MDA-MB-231 (ER−) = test: Growth inhibition assay (MTT, 8 days) in MDA-MB-231 breast cancer cells
Procedure: as §1, §2, §3

[1] = test system: human lung tumor cells (A427); test: Anchorage-independent growth inhibition assay (colony formation in soft agar)
Procedure: (§4) An anchorage-independent growth inhibition assay was performed as described in Korytynski, et al. (1996) “The development of an anchorage-independence assay using human lung tumor cells to screen potential chemopreventive agents,” Anticancer Res. 16, 1091–1094; and Sharma, et al. (1997) “The anchorage-independent assay as a screening tool to identify potential chemopreventive agents,” Methods Cell Sci. 19, 9–12. The assay measures the inhibition of colony formation of human lung tumor cells (A427) cells grown in soft agar. In this assay, A427 cells were grown in the presence of the test agent, SR 13196, EGCG or 13-cis-RA Control samples were tested using an equivalent volume of DMSO alone. A concurrent assay for cell survival was also performed.

[2] = test system: human lung tumor cells (A427); test: Concurrent assay for cell survival; details: for surviving cells: highest concentration tested (25 μM)
Procedure: as §4

[3] = Homo sapiens, MCF7, Table 2, procedures repeated with additional compounds
[4] = Homo sapiens, MDA-MB-231, Table 2, procedures repeated with additional compounds
[5] = Table 2, procedures repeated with additional compounds
[6] = Table 1, MTT on Day 8, average of at least two experiments

Row | Compound | IC50 (MCF-7 (ER+); [3]) [µM] | IC50 (MDA-MB-231 (ER−); [4]) [µM] | Observed Colonies ([1]; 1.56 μM) | Observed Colonies ([1]; 3.12 μM) | Observed Colonies ([1]; 6.25 μM) | Observed Colonies ([1]; 12.5 μM) | Observed Colonies ([1]; 25 μM) | Surviving Fraction ([2]; 1.56 μM) | Surviving Fraction ([2]; 3.12 μM) | Surviving Fraction ([2]; 6.25 μM) | Surviving Fraction ([2]; 12.5 μM) | Surviving Fraction ([2]; 25 μM) | surviving cells [2] [%] | further results
1 | COc1cc([C@H]2Oc3cc(O)cc(O)c3C[C@H]2OC(=O)c2cc(C)c(O)c(C)c2)cc(OC)c1OC [SR 13197] | 124 | 55.4 |  |  |  |  |  |  |  |  |  |  |  | 
2 | Cc1cc(C)c2c(c1)O[C@H](c1cc(O)c(O)c(O)c1)[C@H](OC(=O)c1cc(O)c(O)c(O)c1)C2 [SR 13912] | 39.6 | 62.1 |  |  |  |  |  |  |  |  |  |  |  | 
3 | trans-5,7-DIMETHYL-2-(3,4,5-TRIHYDROXY-PHENYL)-3,4-DIHYDRO-2H-CHROMAN-3-YL, 3,4,5,-TRIHYDROXY-BENZOIC ACID ESTER [SR 13911] |  |  |  |  |  |  |  |  |  |  |  |  |  | IC50 (MCF-7 (ER+); [5]): 23.5 µM; IC50 (MDA-MB-231 (ER−); [5]): 42 µM
4 | Oc1cc(O)c2c(c1)O[C@H](c1cc(O)c(O)c(O)c1)[C@H](O)C2 [EGC (2,3-cis), (−)-epigallocatechin] |  |  |  |  |  |  |  |  |  |  |  |  |  | IC50 (MCF-7 (ER+); [6]): 29.8 µM; IC50 (MDA-MB-231 (ER−); [6]): 27.3 µM
5 | O=C(O[C@@H]1Cc2c(O)cc(O)cc2O[C@@H]1c1cc(O)c(O)c(O)c1)c1cc(O)c(O)c(O)c1 [EGCG, (−)-epigallocatechin-3-gallate] |  |  | 398 | 310 | 282 | 139 | 97 | 0.99 | 0.98 | 0.97 | 0.85 | 0.39 | 39 | IC50 (MCF-7 (ER+); [6]): 8.22 µM; IC50 (MCF-7 (ER+); [5]): 16.8 µM; IC50 (MDA-MB-231 (ER−); [6]): 11.9 µM; IC50 (MDA-MB-231 (ER−); [5]): 5.76 µM; % Inhibition (colony formation) ([1]; 1.56 μM): 0%; % Inhibition (colony formation) ([1]; 3.12 μM): 19%; % Inhibition (colony formation) ([1]; 6.25 μM): 25%; % Inhibition (colony formation) ([1]; 12.5 μM): 40%; % Inhibition (colony formation) ([1]; 25 μM): 50%
6 | Cc1cc(C)c2c(c1)O[C@H](c1cc(O)c(O)c(O)c1)[C@H](OC(=O)c1cc(C)c(O)c(C)c1)C2 [SR 13913] | 16.2 | 20.1 |  |  |  |  |  |  |  |  |  |  |  | 
7 | COc1cc(OC)c2c(c1)OC(c1cc(O)c(O)c(O)c1)[C@H](OC(=O)c1cc(O)c(O)c(O)c1)C2 (stereo partly drawn) [SR 13198, trans-5,7-DIMETHOXY-2-(3,4,5-TRIHYDROXY-PHENYL)-3,4-DIHYDRO-2H-CHROMAN-3-YL, 3,4,5-TRIHYDROXY-BENZOIC ACID ESTER] | 58.1 | 47.9 |  |  |  |  |  |  |  |  |  |  |  | 
8 | CC1=C(/C=C/C(C)=C/C=C/C(C)=C\C(=O)O)C(C)(C)CCC1 [13-cis-RA] |  |  | 310 | 269 | 206 | 179 | 142 | 0.85 | 0.82 | 0.83 | 0.74 | 0.68 | 68 | % Inhibition (colony formation) ([1]; 1.56 μM): 8%; % Inhibition (colony formation) ([1]; 3.12 μM): 16%; % Inhibition (colony formation) ([1]; 6.25 μM): 28%; % Inhibition (colony formation) ([1]; 12.5 μM): 35%; % Inhibition (colony formation) ([1]; 25 μM): 43%
9 | COc1cc([C@H]2Oc3cc(O)cc(O)c3C[C@H]2OC(=O)c2cc(C)c(O)c(C)c2)cc(OC)c1OC (relative stereo) [SR 13196] |  |  | 268 | 108 | 38 | 28 | 8 | 0.71 | 0.41 | 0.17 | 0.12 | 0.11 | 11 | IC50 (MCF-7 (ER+); Homo sapiens, MCF7, 192 h, Table 1, MTT on Day 8, average of at least two experiments): 11.1 µM; IC50 (MDA-MB-231 (ER−); Homo sapiens, MDA-MB-231, 192 h, Table 1, MTT on Day 8, average of at least two experiments): 12.7 µM
